{"source": "patent US6736837B2", "about": "“Method for inducing hypothermia for treating neurological disorders” (priority 1997, dated 2004)", "origin": "cited, not measured here", "tested_on": "tumors", "conditions": "for effect on tumor size: same dose", "note": "Read-outs that look alike come from different tables or passages of the source.", "data": [{"smiles": "O=c1[nH]cc(F)c(=O)[nH]1", "note": "[5-FU, 5-fluoruracil]", "values": [{"measurement": "effect on tumors", "setting": "hamsters, 50 mg/kg, during hypothermia with the tumors maintained at normal body temperature", "result": "regression and disappearance of tumors"}, {"measurement": "effect on tumor size", "setting": "hypothermic animals whose tumors were also hypothermic", "result": "did not affect tumor size"}, {"measurement": "effect on tumor size", "setting": "tumor-bearing animals that were not made hypothermic", "result": "did not affect tumor size"}]}]}
